Reference: paper PMC8545107 (mBio, 2021)
No end group written: not given here.

How the values were obtained:
[1] = biological target: gallocin gene promoter (PgllA) in S. gallolyticus subsp. gallolyticus UCN34 Δgsp pTCVΩPgllA-gfp (receptor BlpH); assay: Gallocin induction reporter gene assay (PgllA-gfp); assay type: cell-based, Streptococcus gallolyticus subsp. gallolyticus; conditions: reporter strain UCN34 Δgsp pTCVΩPgllA-gfp; maximum GFP fluorescence normalized with OD600; 37°C; triplicate, three trials, sigmoidal curve fit
Text: We first aimed at determining the active form of GSP in S. gallolyticus subsp. gallolyticus strain UCN34. GSP is derived from a 45-residue precursor encoded by gsp and is predicted to be processed to a 24-mer peptide by cleavage of the amino-terminal leader sequence after a double glycine motif and then exported to the extracellular environment by the BlpAB transporter. However, GSP was previously isolated as a 21-mer peptide from S. gallolyticus subsp. gallolyticus TX20005 ([10]). We first confirmed by mass spectrometry analysis that GSP isolated from culture supernatants of strain UCN34 was strictly identical to the 21-mer peptide previously purified from strain TX20005 (Fig. S1). […] Therefore, we chemically synthesized GSP 21-mer and GSP 24-mer peptides to test their efficiency in activating gallocin gene transcription. To do so, we used a reporter S. gallolyticus subsp. gallolyticus strain, UCN34, in which the endogenous gsp gene has been deleted and which contains a plasmid expressing gfp under the control of the gallocin gene promoter (PgllA) ([33]).
Fluorescence and absorbance measurements were recorded using a Biotek Synergy H1 microplate reader using Gen5 data analysis software (v. 3.03). Biological assays were performed in triplicate per trial. EC50s from three trials were calculated using GraphPad Prism software (v. 7.0) using a sigmoidal curve fit.
Stock solutions of peptides (1 mM) were prepared in dimethyl sulfoxide (DMSO) and stored at 4°C in sealed glass vials. […] Black polystyrene 96-well microtiter plates (Costar) were used for the GFP cell-based reporter assays.
Peptide stock solutions were serially diluted with DMSO in either 1:2, 1:3, or 1:5 dilutions, and 2 μl of the diluted solution was added to each of the wells in a black 96-well microtiter plate. Each concentration was tested in triplicate, with DMSO only used as a negative control. Screening of peptide analogs was conducted using the S. gallolyticus subsp. gallolyticus UCN34 Δgsp pTCVΩPgllA-gfp strain. An overnight culture was used to make a fresh 2-ml culture without EM using a 1:10 dilution on the day of the experiment and incubated in a CO2 incubator (37°C with 5% CO2) for 3 to 4 h to reach mid-log to late log phase of growth (OD600 = 0.6 to 0.9). A final 1:10 dilution was made on a larger scale (20 ml) without EM and used for the assay, where 198 μl diluted bacterial culture was added to each well of the microtiter plate containing peptides. Plates were incubated at 37°C with shaking at 200 rpm. Fluorescence (excitation, 485 nm; emission, 516 nm) and optical density at 600 nm (OD600) readings were recorded for each well using a plate reader. Measurements were taken 1 h after inoculation and were recorded every 20 to 30 min for up to 3 h to capture the maximum fluorescence signal. The maximum fluorescence signal was normalized with the OD600 value and used to construct dose curves to determine the EC50.

[2] = S. mutans ΔcomC washed cells in saline solution; conditions: S. mutans SMCC3 (ΔcomC), 37°C, up to 30 min
[3] = washed UCN34 Δgsp cells in sterile saline solution (0.9% [wt/vol] NaCl); conditions: S. gallolyticus subsp. gallolyticus UCN34 Δgsp, 37°C, up to 30 min
[4] = washed UCN34 ΔsepM cells in sterile saline solution (0.9% [wt/vol] NaCl); conditions: S. gallolyticus subsp. gallolyticus UCN34 ΔsepM, 37°C, up to 30 min

Sequence	EC50 [1] [nM]	further results
DFLIVGPFDALKKNHKPTKHA [GSP W10A]	> 1000	–
DFLIVGPFDWLKKNHKPT [GSP-des-K19-A21]	> 1000	–
DFLIVGPFDWLKKNHKPTAHA [GSP K19A]	106	–
DFLIVGPFDWLKKNHKPTK [GSP-des-H20-A21]	> 1000	–
DFLIVGPFDWLKKNHKPTKH [GSP-des-A21]	> 1000	–
DFLIVGPFDWLKKNHKPTKHA	–	cleaved bond [2]: L3-I4, 30 min; cleaved bond [3]: L3-I4, 30 min
KNKDFLIVGPFDWLKKNHKPTKHA	–	cleaved bond [3]: L3-I4, 30 min; not cleaved [3]: Degradation of KNK-GSP to GSP was not observed (30 min); cleaved bond [4]: L3-I4, 30 min; not cleaved [4]: Degradation of KNK-GSP to GSP was not observed (30 min)
LKKNHKPTKHA [GSP-des-D1-W10]	> 1000	–
